Laboratory results as given in patent publication US9200046B2, “Reporter system for high throughput screening of compounds and uses thereof” (priority 2011, dated 2015).
“And” between values parts separate entries of the source, which are not always exact repeats. Identical values can stand only once. Counter-ions that a name gives are not always drawn. Like-named read-outs stand apart in the source and are kept apart here.

Target: Nrf2-Keap1 complex (Homo sapiens, UniProt Q14145)
Assay: cell-based
Type: cell-based
Settings: for activation at 16 µM / activation at 32 µM: 3 h; for activation at 16 µM: read-out: Activation 100 nL; for activation at 32 µM: read-out: Activation 200 nL
[1] = Table 2, 100 nL compound, screen run at 16 and 32 μM, 3 hr
[2] = Table 2, 200 nL compound, screen run at 16 and 32 μM, 3 hr
[3] = Table 1A, 100 nL compound, screen run at 16 and 32 μM, 3 hr
[4] = Table 1A, 200 nL compound, screen run at 16 and 32 μM, 3 hr

Sequence of Nrf2-Keap1 complex (Q14145 whole entry, one chain of several): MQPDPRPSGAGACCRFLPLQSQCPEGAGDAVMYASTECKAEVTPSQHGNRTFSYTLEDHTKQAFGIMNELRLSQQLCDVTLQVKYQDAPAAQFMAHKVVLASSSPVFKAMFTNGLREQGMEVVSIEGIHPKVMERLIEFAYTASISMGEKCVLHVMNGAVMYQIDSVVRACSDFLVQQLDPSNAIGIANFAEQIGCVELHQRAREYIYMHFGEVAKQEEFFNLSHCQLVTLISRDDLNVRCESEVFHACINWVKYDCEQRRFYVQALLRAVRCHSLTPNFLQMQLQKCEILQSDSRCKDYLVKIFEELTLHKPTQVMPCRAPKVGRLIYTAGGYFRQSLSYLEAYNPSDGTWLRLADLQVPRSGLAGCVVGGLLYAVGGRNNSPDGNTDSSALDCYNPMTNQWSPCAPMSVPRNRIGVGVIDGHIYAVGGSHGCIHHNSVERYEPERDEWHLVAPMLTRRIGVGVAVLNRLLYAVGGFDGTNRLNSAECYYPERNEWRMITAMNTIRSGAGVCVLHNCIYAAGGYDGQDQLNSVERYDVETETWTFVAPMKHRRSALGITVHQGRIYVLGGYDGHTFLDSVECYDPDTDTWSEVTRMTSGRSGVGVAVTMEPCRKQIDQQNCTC

SMILES | Activation 100 nL [%] | Activation 200 nL [%] | 100 nL (luminescence) [1] | 200 nL (luminescence) [2] | activation at 16 µM [%] | activation at 32 µM [%] | also measured
COC(=O)CC[C@@H](C)[C@H]1CC[C@H]2[C@@H]3[C@H](O)C[C@@H]4C[C@H](O)CC[C@]4(C)[C@H]3C[C@H](O)[C@]12C [CHOLICACID, METHYLESTER] | 36 | 15 | 848 | 804 | – | – | –
CC1(C)C2(Cl)C(Cl)C(Cl)C(Cl)(C(Cl)Cl)C1(Cl)C2Cl (stereo not shown) [STROBANE] | – | – | 5556 | 5836 | 388 | 235 | –
NCCc1ccc(O)c(O)c1 [3-HYDROXYTYRAMINE] | – | – | – | – | 37 | 69 | 100 nL (luminescence): 990; 200 nL (luminescence): 1704
C=C[C@@]1(C)CC(=O)[C@]2(O)[C@@]3(C)[C@@H](O)CCC(C)(C)[C@@H]3[C@H](O)[C@H](OC(C)=O)[C@@]2(C)O1 [COLFORSIN, reference compound] | – | – | 2208 | 2568 | 91 | 120 | –
Oc1nc2cc(Cl)c(Cl)cc2nc1O [2,3-DIHYDROXY-6,7-DICHLOROQUINOXALINE] | – | – | 1056 | 1992 | 46 | 109 | –
N.N.[Cl][Pt][Cl] [CISPLATIN, reference compound] | 36 | 90 | 1100 | 1496 | – | – | –
O=C1CN(/N=C/c2ccc([N+](=O)[O-])o2)C(=O)N1 [NITROFURANTOIN, reference compound] | – | – | – | – | 30 | 47 | –
CC1(C)C=CC(=O)[C@@]2(C)C1CC(=O)[C@]1(C)C2CC[C@@]2(C)[C@H](c3ccoc3)OC(=O)C3OC321 (stereo partly shown) [DEACETOXY-7-OXISOGEDUNIN] | 170 | 178 | 2960 | 3040 | – | – | –
O=[N+]([O-])c1cccc2c(Br)n[nH]c12 [3-BROMO-7-NITROINDAZOLE] | – | – | – | – | 30 | 8 | hit strength in the screen (words): modest hits; 100 nL (luminescence) [3]: 632; 200 nL (luminescence) [4]: 512
COc1cc(O)c2c(=O)c(O)c(-c3ccc(O)c(O)c3)oc2c1 [RHAMNETIN] | – | – | 2216 | 1536 | 138 | 47 | –
COc1ccc(C(=O)/C=C/c2ccccc2)cc1 [4′-METHOXYCHALCONE] | – | – | 2400 | 102 | 134 | -15 | –
O=c1cc(-c2ccc(O)c(O)c2)oc2cc(O)cc(O)c12 [Luteolin, 5,7,3′,4′-tetrahydroxyflavone] | – | – | – | – | – | – | hit strength in the screen (words): much lesser active than fisetin and quercetin; hit strength in the screen (words) (listed as luteolin): very poor Nrf2 activator
COc1cc(O)c(C(=O)c2ccccc2)cc1O [CEAROIN] | – | – | 1076 | 2988 | 53 | 111 | –
CC(=O)C(=Cc1ccccc1)CC(=O)O | 78 | 43 | 1048 | 1348 | – | – | –
O=C1c2cccc(O)c2C(=O)c2c(O)cccc21 [DANTRON, reference compound] | – | – | 616 | 1020 | 29 | 29 | –
O=c1c(O)c(-c2ccccc2)oc2cccc(O)c12 [3,5-DIHYDROXYFLAVONE] | – | – | 1484 | 24 | 66 | -17 | –
CC1=CC(=O)[C@H]2C(C)(C)CCC[C@]2(C)[C@@]1(O)CCc1ccoc1 [SOLIDAGENONE] | – | – | – | – | 121 | 77 | 100 nL (luminescence) [3]: 1976; 200 nL (luminescence) [4]: 2220
CC(C)=CCCC1(C)C=Cc2c(O)c3c(c(CC=C(C)C)c2O1)OC12C(CC4CC1C(C)(C)OC2(C/C=C(/C)C(=O)O)C4O)C3=O (stereo not shown) [TETRAHYDROGAMBOGICACID] | 383 | 100 | 5480 | 2748 | – | – | –
COc1cc([C@@H]2c3cc4c(cc3[C@@H](O[C@@H]3O[C@@H]5CO[C@@H](c6cccs6)O[C@H]5[C@H](O)[C@H]3O)[C@H]3COC(=O)[C@H]23)OCO4)cc(OC)c1O [TENIPOSIDE, reference compound] | – | – | 3572 | 1520 | 159 | 61 | Neh2-luc reporter activation: 200%
CC(C)=CCC[C@@H](C)[C@@H]1CC[C@]2(C)C3=C(CC[C@@]12C)[C@@]1(C)CC[C@H](O)C(C)(C)[C@@H]1CC3 [EUPHOL] | – | – | 1572 | 2064 | 138 | 74 | –

SMILES | Activation 100 nL [%] | Activation 200 nL [%] | 100 nL (luminescence) [1] | 200 nL (luminescence) [2] | activation at 16 µM [%] | activation at 32 µM [%] | also measured
CC(C)c1ccc2c(c1O)CC[C@H]1C3=C(CC[C@]21C)C(=O)OC3 [TRIPTOPHENOLIDE] | – | – | 832 | 390 | 35 | -3 | –
CC(=O)OC[C@@]1(O)C[C@@]23CC[C@@H]4c5ccoc5CC[C@@]4(C)[C@@H]2CC[C@@H]1C3 [CAFESTOLACETATE] | – | – | 1452 | 1976 | 81 | 67 | –
CC1CCC(NC(=O)N(CCCl)N=O)CC1 (stereo not shown) [SEMUSTINE, reference compound] | – | – | – | – | 39 | 144 | 100 nL (luminescence): 1172; 200 nL (luminescence): 3000
Cn1cnc([N+](=O)[O-])c1Sc1[nH]cnc2ncnc1-2 [AZATHIOPRINE, reference compound] | – | – | – | – | 49 | 70 | 100 nL (luminescence): 948; 200 nL (luminescence): 1804; hit strength in the screen (words): modest hits
CC1(C)[N+]([O-])=[N+]([O-])C1(C)Br (stereo not shown) | 55 | 83 | 1308 | 1976 | – | – | –
C=C(NC(=O)C(=C)NC(=O)c1csc(C2=N[C@@H]3c4csc(n4)[C@H]4NC(=O)c5csc(n5)[C@H]([C@](C)(O)[C@@H](C)O)NC(=O)[C@H]5CSC(=N5)/C(=C/C)NC(=O)[C@H]([C@@H](C)O)NC(=O)c5csc(n5)[C@]3(CC2)NC(=O)[C@H](C)NC(=O)C(=C)NC(=O)[C@H](C)NC(=O)[C@H]([C@@H](C)CC)N[C@@H]2C=Cc3c([C@H](C)O)cc(nc3[C@H]2O)C(=O)O[C@@H]4C)n1)C(N)=O [THIOSTREPTON, reference compound] | – | – | – | – | 58 | 50 | 100 nL (luminescence) [3]: 876; 200 nL (luminescence) [4]: 1504
C=C[C@@](C)(O)CCC1C(=C)CCC2[C@@](C)(CO)CCC[C@]12C (stereo partly drawn) [EPI(13)TORULOSOL] | 27 | 0 | 724 | 448 | – | – | –
COc1cc([C@@H]2c3cc4c(cc3[C@H](O)[C@H]3COC(=O)[C@@H]23)OCO4)cc(OC)c1OC [PICROPODOPHYLLOTOXIN] | – | – | 848 | 1196 | 32 | 57 | –
CC(=O)NC(C(=O)O)C(C)(C)SN=O (stereo not shown) [reference compound] | 45 | 52 | 1044 | 1120 | – | – | –
CSc1nc(NC(C)C)nc(NC(C)C)n1 [PROMETRYN] | – | – | 1264 | 542 | 67 | 4 | –
COc1ccc2c(c1)OCC(Cc1ccc(O)c(OC)c1)C2=O (stereo not shown) | – | – | – | – | – | – | 100 nL (luminescence): 1416 and 900
S=c1ccss1 [3H-1,2-DITHIOLE-3-THIONE] | – | – | 5416 | 2832 | 295 | 127 | –
Nc1ncnc2c1ncn2[C@@H]1O[C@H](CO)[C@@H](O)[C@H]1O [ADENOSINE, reference compound] | – | – | – | – | 61 | 20 | 100 nL (luminescence): 1100; 200 nL (luminescence): 760; hit strength in the screen (words): modest hits
COC(=O)C(N)CS (stereo not shown) [MECYSTEINEHYDROCHLORIDE, reference compound] | – | – | – | – | 82 | 216 | 100 nL (luminescence): 2028; 200 nL (luminescence): 3064
CC1(C)C(=O)C=C[C@]2(C)[C@H]3CC[C@@]4(C)[C@H](c5ccoc5)OC(=O)[C@H]5O[C@]54[C@]3(C)C=C[C@@H]12 [7-DESACETOXY-6,7-DEHYDROGEDUNIN] | 85 | −9 | 1660 | 188 | – | – | –
O=c1cc(-c2cc(O)c(O)c(O)c2)oc2cc(O)cc(O)c12 [HIERACIN] | 160 | 60 | 2502 | 1832 | – | – | –
COc1ccc2ccc(=O)oc2c1CC=C(C)C [OSTHOL] | 58 | 52 | 1136 | 1634 | – | – | –
CC(=O)O[C@@H]1CC2C(C)(C)[C@H](O)CC[C@]2(C)C2CC[C@@]3(C)[C@H](c4ccoc4)OC(=O)C4OC43[C@@]21C (stereo partly drawn) [alpha-DIHYDROGEDUNOL] | 41 | 29 | 720 | 1008 | – | – | Neh2-luc reporter activation: 40%
CC(=O)Oc1ccc(Cl)c2cccnc12 [CHLOROACETOXYQUINOLINE] | – | – | – | – | 60 | 37 | Neh2-luc reporter activation: 60%
COc1cc(O)cc(OC)c1OC [ANTIAROL] | – | – | 1016 | 2248 | 74 | 81 | –
